Source: article PMC4847154, “Sticky swinging arm dynamics: studies of an acyl carrier protein domain from the mycolactone polyketide synthase” (Biochemical Journal, 2016)

Legend:
[1] = target: T1, mACP9 (ACP domain from MLSA2, module 9 of the mycolactone PKS) (Mycobacterium ulcerans, UniProt Q6MZA5); assay: circular dichroism thermal denaturation; type: binding; settings: absolute Tm
T1 construct: excised ACP domain, residues 2050-2140; N-terminal His6-tag cleaved by thrombin leaving GSHM; E. coli Tuner(DE3); monomer; Ppant attachment at Ser2096

[2] = target: T1, mACP9 (ACP domain from MLSA2, module 9 of the mycolactone PKS); assay: solution NMR structure; type: binding; settings: covalent at Ser2096; nonpolar pocket between helix α2 and turns α2′ and α3′; phosphate buffer pH 7.5, 283 K

## CC(C)(COP(=O)(O)O)[C@@H](O)C(=O)NCCC(=O)NCCS [holo, 4′-phosphopantetheine]
[1]; covalent at Ser2096 (holo form), 20 mM sodium hydrogen phosphate, 50 mM NaF, pH 7.5, apo reference in the same sentence
  Tm: 59 °C

## CCCCCCCC(=O)SCCNC(=O)CCNC(=O)[C@H](O)C(C)(C)COP(=O)(O)O [octanoyl, octanoyl-phosphopantetheine group]
[1]; covalent at Ser2096 (octanoyl-Ppant), buffer as above, apo and holo references in the same sentence
  Tm: 57 °C
[2]
  solution NMR structure: final ensemble for octanoyl-mACP9 were deposited in the Protein Data Bank under ID code 5HV8

## hexanoyl-mACP9 (hexanoyl-phosphopantetheine group)
[1]; covalent at Ser2096 (hexanoyl-Ppant), buffer as above, apo and holo references in the same sentence
  Tm: 58 °C
